Assay: Pharmacokinetics of sinomenine in rat plasma after oral administration of sinomenine monomer and Sinomenium acutum extract
Settings: male, Wistar

SMILES: COC1=C[C@H]2[C@H]3Cc4ccc(OC)c(O)c4[C@@]2(CCN3C)CC1=O [Sinomenine, 7,8-didehydro-4-hydroxy-3,7-dimethoxy-17-methylmorphinane-6-one]
- AUC(0-inf) (30 mg/kg): 32800 ± 5370 ng·h/mL
- AUC(0-t) (30 mg/kg): 29200 ± 4060 ng·h/mL
- CL/F (30 mg/kg): 15.6 mL/min/kg
- Cmax (30 mg/kg): 5240 ± 390 ng/mL
- MRT inf (30 mg/kg): 7.3 ± 0.889 h
- Tmax (30 mg/kg): 1.08 ± 0.204 h
- half-life (30 mg/kg): 4.88 ± 0.635 h
- AUC(0-inf) (60 mg/kg): 94000 ± 11200 ng·h/mL
- AUC(0-t) (60 mg/kg): 78900 ± 5130 ng·h/mL
- CL/F (60 mg/kg): 10.8 mL/min/kg
- Cmax (60 mg/kg): 11600 ± 942 ng/mL
- MRT inf (60 mg/kg): 8.8 ± 1.91 h
- Tmax (60 mg/kg): 1.5 ± 0.316 h
- half-life (60 mg/kg): 5.77 ± 1.59 h
